Reference: ChEMBL document CHEMBL1150788, “In vitro susceptibility of Sporothrix schenckii to six antifungal agents determined using three different methods” (2007)

Assays:
Format in all cases: functional
Sporothrix schenckii [1] = assay: Antifungal activity against Sporothrix schenckii P30019 isolate from cutaneous-lymphatic sporotrichosis patient after 72 hrs by Sensititre YeastOne method
Sporothrix schenckii [2] = assay: Antifungal activity against Sporothrix schenckii P3287 isolate from cutaneous-lymphatic sporotrichosis patient after 72 hrs by Sensititre YeastOne method
Sporothrix schenckii [3] = assay: Antifungal activity against Sporothrix schenckii P25013 isolate from cutaneous-lymphatic sporotrichosis patient after 72 hrs by Sensititre YeastOne method
Sporothrix schenckii [4] = assay: Antifungal activity against Sporothrix schenckii PSSA81 isolate from cutaneous-lymphatic sporotrichosis patient after 72 hrs by Sensititre YeastOne method
Sporothrix schenckii [5] = assay: Antifungal activity against Sporothrix schenckii SSA29 isolate from cutaneous-lymphatic sporotrichosis patient after 72 hrs by Sensititre YeastOne method
Pichia kudriavzevii [6] = assay: Antifungal activity against Candida krusei ATCC 6258 […] after 72 hrs by Sensititre YeastOne method; conditions: ATCC 6258, 72 h
Sporothrix schenckii [7] = assay: Antifungal activity against Sporothrix schenckii P20825 isolate from cutaneous-lymphatic sporotrichosis patient after 72 hrs by Sensititre YeastOne method
Sporothrix schenckii [8] = assay: Antifungal activity against Sporothrix schenckii P24255 isolate from cutaneous-lymphatic sporotrichosis patient after 72 hrs by Sensititre YeastOne method
Candida parapsilosis [9] = assay: Antifungal activity against Candida parapsilosis ATCC 22019 […] after 72 hrs by Sensititre YeastOne method; conditions: Lodderomyces parapsilosis, ATCC 22019, 72 h
Sporothrix schenckii [10] = assay: Antifungal activity against Sporothrix schenckii P14954 isolate from cutaneous-lymphatic sporotrichosis patient after 72 hrs by Sensititre YeastOne method
Sporothrix schenckii [11] = assay: Antifungal activity against Sporothrix schenckii P26187 isolate from cutaneous-lymphatic sporotrichosis patient after 72 hrs by Sensititre YeastOne method
Sporothrix schenckii [12] = assay: Antifungal activity against Sporothrix schenckii P30915 isolate from cutaneous-lymphatic sporotrichosis patient after 72 hrs by Sensititre YeastOne method
Sporothrix schenckii [13] = assay: Antifungal activity against Sporothrix schenckii PGAC0016 isolate from cutaneous-lymphatic sporotrichosis patient after 72 hrs by Sensititre YeastOne method
Sporothrix schenckii [14] = assay: Antifungal activity against Sporothrix schenckii P24223 isolate from cutaneous-lymphatic sporotrichosis patient after 72 hrs by Sensititre YeastOne method
Sporothrix schenckii [15] = assay: Antifungal activity against Sporothrix schenckii P14036 isolate from cutaneous-lymphatic sporotrichosis patient after 72 hrs by Sensititre YeastOne method
Sporothrix schenckii [16] = assay: Antifungal activity against Sporothrix schenckii PJRC002 isolate from cutaneous-lymphatic sporotrichosis patient after 72 hrs by Sensititre YeastOne method
Sporothrix schenckii [17] = assay: Antifungal activity against Sporothrix schenckii P1621 isolate from cutaneous-lymphatic sporotrichosis patient after 72 hrs by Sensititre YeastOne method
Sporothrix schenckii [18] = assay: Antifungal activity against Sporothrix schenckii PSCC1 isolate from cutaneous-lymphatic sporotrichosis patient after 72 hrs by Sensititre YeastOne method
Sporothrix schenckii [19] = assay: Antifungal activity against Sporothrix schenckii isolate from cutaneous-lymphatic sporotrichosis patient after 72 hrs by Sensititre YeastOne method
Sporothrix schenckii [20] = assay: Antifungal activity against Sporothrix schenckii P0019 isolate from cutaneous-lymphatic sporotrichosis patient after 72 hrs by Sensititre YeastOne method
Sporothrix schenckii [21] = assay: Antifungal activity against Sporothrix schenckii P10012 isolate from cutaneous-lymphatic sporotrichosis patient after 72 hrs by Sensititre YeastOne method
Sporothrix schenckii [22] = assay: Antifungal activity against Sporothrix schenckii MRSS4 isolate from cutaneous-lymphatic sporotrichosis patient after 72 hrs by Sensititre YeastOne method
Sporothrix schenckii [23] = assay: Antifungal activity against Sporothrix schenckii P14036 isolate from cutaneous-lymphatic sporotrichosis patient after 72 hrs by modified NCCLS M38-A method
Candida parapsilosis [24] = assay: Antifungal activity against Candida parapsilosis ATCC 22019 […] after 72 hrs by modified NCCLS M38-A method; conditions: Lodderomyces parapsilosis, ATCC 22019, 72 h
Sporothrix schenckii [25] = assay: Antifungal activity against Sporothrix schenckii P3287 isolate from cutaneous-lymphatic sporotrichosis patient after 72 hrs by modified NCCLS M38-A method
Aspergillus flavus [26] = assay: Antifungal activity against Aspergillus flavus ATCC 204304 […] after 72 hrs by Sensititre YeastOne method; conditions: ATCC 204304, 72 h
Pichia kudriavzevii [27] = assay: Antifungal activity against Candida krusei ATCC 6258 […] after 72 hrs by modified NCCLS M38-A method; conditions: ATCC 6258, 72 h
Sporothrix schenckii [28] = assay: Antifungal activity against Sporothrix schenckii P10012 isolate from cutaneous-lymphatic sporotrichosis patient after 72 hrs by modified NCCLS M38-A method
Sporothrix schenckii [29] = assay: Antifungal activity against Sporothrix schenckii P30019 isolate from cutaneous-lymphatic sporotrichosis patient after 72 hrs by modified NCCLS M38-A method
Sporothrix schenckii [30] = assay: Antifungal activity against Sporothrix schenckii MRSS4 isolate from cutaneous-lymphatic sporotrichosis patient after 72 hrs by modified NCCLS M38-A method
Sporothrix schenckii [31] = assay: Antifungal activity against Sporothrix schenckii isolate from cutaneous-lymphatic sporotrichosis patient after 72 hrs by modified NCCLS M38-A method
Sporothrix schenckii [32] = assay: Antifungal activity against Sporothrix schenckii PSSA81 isolate from cutaneous-lymphatic sporotrichosis patient after 72 hrs by modified NCCLS M38-A method
Sporothrix schenckii [33] = assay: Antifungal activity against Sporothrix schenckii P20825 isolate from cutaneous-lymphatic sporotrichosis patient after 72 hrs by modified NCCLS M38-A method
Sporothrix schenckii [34] = assay: Antifungal activity against Sporothrix schenckii SSA29 isolate from cutaneous-lymphatic sporotrichosis patient after 72 hrs by modified NCCLS M38-A method
Sporothrix schenckii [35] = assay: Antifungal activity against Sporothrix schenckii PJRC002 isolate from cutaneous-lymphatic sporotrichosis patient after 72 hrs by modified NCCLS M38-A method
Aspergillus flavus [36] = assay: Antifungal activity against Aspergillus flavus ATCC 204304 […] after 72 hrs by modified NCCLS M38-A method; conditions: ATCC 204304, 72 h
Sporothrix schenckii [37] = assay: Antifungal activity against Sporothrix schenckii PSCC1 isolate from cutaneous-lymphatic sporotrichosis patient after 72 hrs by modified NCCLS M38-A method
Sporothrix schenckii [38] = assay: Antifungal activity against Sporothrix schenckii PGAC0016 isolate from cutaneous-lymphatic sporotrichosis patient after 72 hrs by modified NCCLS M38-A method
Sporothrix schenckii [39] = assay: Antifungal activity against Sporothrix schenckii P1621 isolate from cutaneous-lymphatic sporotrichosis patient after 72 hrs by modified NCCLS M38-A method
Sporothrix schenckii [40] = assay: Antifungal activity against Sporothrix schenckii P24255 isolate from cutaneous-lymphatic sporotrichosis patient after 72 hrs by modified NCCLS M38-A method
Sporothrix schenckii [41] = assay: Antifungal activity against Sporothrix schenckii P14954 isolate from cutaneous-lymphatic sporotrichosis patient after 72 hrs by modified NCCLS M38-A method
Sporothrix schenckii [42] = assay: Antifungal activity against Sporothrix schenckii P25013 isolate from cutaneous-lymphatic sporotrichosis patient after 72 hrs by modified NCCLS M38-A method
Sporothrix schenckii [43] = assay: Antifungal activity against Sporothrix schenckii P26187 isolate from cutaneous-lymphatic sporotrichosis patient after 72 hrs by modified NCCLS M38-A method
Sporothrix schenckii [44] = assay: Antifungal activity against Sporothrix schenckii P0019 isolate from cutaneous-lymphatic sporotrichosis patient after 72 hrs by modified NCCLS M38-A method
Sporothrix schenckii [45] = assay: Antifungal activity against Sporothrix schenckii P24223 isolate from cutaneous-lymphatic sporotrichosis patient after 72 hrs by modified NCCLS M38-A method
Sporothrix schenckii [46] = assay: Antifungal activity against Sporothrix schenckii P30915 isolate from cutaneous-lymphatic sporotrichosis patient after 72 hrs by modified NCCLS M38-A method

CC(=O)N1CCN(c2ccc(OCC3COC(Cn4ccnc4)(c4ccc(Cl)cc4Cl)O3)cc2)CC1 (stereo unspecified) [KETOCONAZOLE]
1 µg/mL: MIC (Pichia kudriavzevii [6])
0.125 µg/mL: MIC (Sporothrix schenckii [1]) | MIC (Sporothrix schenckii [7]) | MIC (Sporothrix schenckii [8]) | MIC (Candida parapsilosis [9]) | MIC (Sporothrix schenckii [13]) | MIC (Sporothrix schenckii [15]) | MIC (Sporothrix schenckii [16]) | MIC (Sporothrix schenckii [18])
0.5 µg/mL: MIC (Sporothrix schenckii [2]) | MIC (Sporothrix schenckii [12]) | MIC (Sporothrix schenckii [14]) | MIC90 (Sporothrix schenckii [19])
0.25 µg/mL: MIC (Sporothrix schenckii [5]) | MIC (Sporothrix schenckii [10]) | MIC (Sporothrix schenckii [11]) | MIC (Sporothrix schenckii [17]) | MIC50 (Sporothrix schenckii [19]) | MIC (Sporothrix schenckii [21]) | MIC (Sporothrix schenckii [22])
0.06 µg/mL: MIC (Sporothrix schenckii [3]) | MIC (Sporothrix schenckii [4]) | MIC (Sporothrix schenckii [20])

C[C@@H](c1ncncc1F)[C@](O)(Cn1cncn1)c1ccc(F)cc1F [VORICONAZOLE]
0.03 µg/mL: MIC (Candida parapsilosis [24])
1 µg/mL: MIC (Sporothrix schenckii [1]) | MIC (Pichia kudriavzevii [6])
8 µg/mL: MIC (Sporothrix schenckii [2]) | MIC (Sporothrix schenckii [23]) | MIC (Sporothrix schenckii [30]) | MIC50 (Sporothrix schenckii [31]) | MIC (Sporothrix schenckii [32]) | MIC (Sporothrix schenckii [10]) | MIC (Sporothrix schenckii [33]) | MIC (Sporothrix schenckii [34]) | MIC (Sporothrix schenckii [14]) | MIC (Sporothrix schenckii [40]) | MIC (Sporothrix schenckii [42]) | MIC (Sporothrix schenckii [43]) | MIC90 (Sporothrix schenckii [19]) | MIC (Sporothrix schenckii [45])
0.25 µg/mL: MIC (Aspergillus flavus [26])
16 µg/mL: MIC (Sporothrix schenckii [25]) | MIC (Sporothrix schenckii [28]) | MIC90 (Sporothrix schenckii [31]) | MIC (Sporothrix schenckii [38]) | MIC (Sporothrix schenckii [39]) | MIC (Sporothrix schenckii [41]) | MIC (Sporothrix schenckii [44]) | MIC (Sporothrix schenckii [46])
2 µg/mL: MIC (Sporothrix schenckii [16]) | MIC (Sporothrix schenckii [17]) | MIC (Sporothrix schenckii [18]) | MIC50 (Sporothrix schenckii [19]) | MIC (Sporothrix schenckii [22])
4 µg/mL: MIC (Sporothrix schenckii [5]) | MIC (Sporothrix schenckii [29]) | MIC (Sporothrix schenckii [8]) | MIC (Sporothrix schenckii [35]) | MIC (Sporothrix schenckii [11]) | MIC (Sporothrix schenckii [37]) | MIC (Sporothrix schenckii [12]) | MIC (Sporothrix schenckii [13])
0.12 µg/mL: MIC (Pichia kudriavzevii [27])
0.06 µg/mL: MIC (Candida parapsilosis [9])
0.5 µg/mL: MIC (Sporothrix schenckii [3]) | MIC (Sporothrix schenckii [4]) | MIC (Sporothrix schenckii [7]) | MIC (Aspergillus flavus [36]) | MIC (Sporothrix schenckii [15]) | MIC (Sporothrix schenckii [20]) | MIC (Sporothrix schenckii [21])
